Source: PMC4891385 (Clinical Drug Investigation, 2016)
Where two headings read alike, the source gives them in different places.

How the values were obtained:
[1] = furosemide 40 mg with lesinurad 400 mg vs alone
[2] = substrate: O=C(O)CSc1nnc(Br)n1-c1ccc(C2CC2)c2ccccc12; test: [14C]-lesinurad uptake, substrate test, OAT3 oocytes; format: in vitro ADME; details: other: lesinurad as substrate of OAT3
[3] = substrate: O=C(O)CSc1nnc(Br)n1-c1ccc(C2CC2)c2ccccc12; test: [14C]-lesinurad uptake, substrate test, hOCT1 MDCK-II cells; format: in vitro ADME, human; details: other: lesinurad as substrate of OCT1
[4] = atorvastatin 40 mg with lesinurad 200 mg vs alone

NS(=O)(=O)c1cc(C(=O)O)c(NCc2ccco2)cc1Cl [Furosemide, furosemide]
reduction of amount excreted in urine [1]: approximately 25%

CC(C)c1c(C(=O)Nc2ccccc2O)c(-c2ccccc2)c(-c2ccc(F)cc2)n1CCC(O)CC(O)CC(=O)O (stereo not drawn) [2-OH-atorvastatin]
increase in AUC∞ [4]: 20%
increase in Cmax [4]: 16%
increase in Cmax (atorvastatin 40 mg with lesinurad 400 mg vs alone): 17–34%

B1: OAT3 (Homo sapiens) (protein)
chain: MTFSEILDRVGSMGHFQFLHVAILGLPILNMANHNLLQIFTAATPVHHCRPPHNASTGPWVLPMGPNGKPERCLRFVHPPNASLPNDTQRAMEPCLDGWVYNSTKDSIVTEWDLVCNSNKLKEMAQSIFMAGILIGGLVLGDLSDRFGRRPILTCSYLLLAASGSGAAFSPTFPIYMVFRFLCGFGISGITLSTVILNVEWVPTRMRAIMSTALGYCYTFGQFILPGLAYAIPQWRWLQLTVSIPFFVFFLSSWWTPESIRWLVLSGKSSKALKILRRVAVFNGKKEEGERLSLEELKLNLQKEISLAKAKYTASDLFRIPMLRRMTFCLSLAWFATGFAYYSLAMGVEEFGVNLYILQIIFGGVDVPAKFITILSLSYLGRHTTQAAALLLAGGAILALTFVPLDLQTVRTVLAVFGKGCLSSSFSCLFLYTSELYPTVIRQTGMGVSNLWTRVGSMVSPLVKITGEVQPFIPNIIYGITALLGGSAALFLPETLNQPLPETIEDLENWSLRAKKPKQEPEVEKASQRIPLQPHGPGLGSS
Km [2]: 2 µM

B2: OCT1 (Homo sapiens) (protein)
chain: MPTVDDILEQVGESGWFQKQAFLILCLLSAAFAPICVGIVFLGFTPDHHCQSPGVAELSQRCGWSPAEELNYTVPGLGPAGEAFLGQCRRYEVDWNQSALSCVDPLASLATNRSHLPLGPCQDGWVYDTPGSSIVTEFNLVCADSWKLDLFQSCLNAGFLFGSLGVGYFADRFGRKLCLLGTVLVNAVSGVLMAFSPNYMSMLLFRLLQGLVSKGNWMAGYTLITEFVGSGSRRTVAIMYQMAFTVGLVALTGLAYALPHWRWLQLAVSLPTFLFLLYYWCVPESPRWLLSQKRNTEAIKIMDHIAQKNGKLPPADLKMLSLEEDVTEKLSPSFADLFRTPRLRKRTFILMYLWFTDSVLYQGLILHMGATSGNLYLDFLYSALVEIPGAFIALITIDRVGRIYPMAMSNLLAGAACLVMIFISPDLHWLNIIIMCVGRMGITIAIQMICLVNAELYPTFVRNLGVMVCSSLCDIGGIITPFIVFRLREVWQALPLILFAVLGLLAAGVTLLLPETKGVALPETMKDAENLGRKAKPKENTIYLKVQTSEPSGT
Km [3]: 20 µM
